In ChEMBL document CHEMBL6109104, “Synthesis and antibacterial evaluations of novel vancomycin analogues targeting bacteria membrane to combat Gram-negative infections” (Eur J Med Chem, 2025):
≈ marks a conversion by molar mass, not a printed value. Calls of active or inactive are those of the source. The rule behind the calls is not given here.

Assays:
[1] = system: Staphylococcus aureus; assay: Antibacterial activity against methicillin-resistant Staphylococcus aureus USA300 incubated for 16 to 18 hrs by muller hinton broth based microplate reader analysis; format: functional; settings: time 16-18 hrs
[2] = system: Staphylococcus aureus; assay: Antibacterial activity vancomycin-intermediate resistant Staphylococcus aureus incubated for 16 to 18 hrs by muller hinton broth based microplate reader analysis; format: functional; settings: time 16-18 hrs
[3] = system: Acinetobacter baumannii; assay: Antibacterial activity against Acinetobacter baumannii ATCC17978 incubated for 16 to 18 hrs by muller hinton broth based microplate reader analysis; format: functional; settings: time 16-18 hrs
[4] = system: Acinetobacter baumannii; assay: Antibacterial activity against Acinetobacter baumannii ATCC19606 incubated for 16 to 18 hrs by muller hinton broth based microplate reader analysis; format: functional; settings: time 16-18 hrs
[5] = system: Acinetobacter baumannii; assay: Antibacterial activity against Acinetobacter baumannii ATCC17978 assessed as bactericidal rate by measuring bacterial count at 8 times MIC incubated for 4 hrs by muller-hinton agar based time-kill kinetics assay; format: functional, organism-based
[6] = system: Acinetobacter baumannii; assay: Antibacterial activity against Acinetobacter baumannii ATCC17978 infected in neutropenic thigh infection Kunming mouse model assessed as reduction in bacterial survival at 10 mg/kg, sc pretreated with bacteria for 2 hrs followed by compound addition and measured after 16 hrs; format: functional, organism-based
[7] = Toxicity in Kunming mouse infected with Acinetobacter baumannii ATCC17978 assessed as changed in body weight at 10 to 20 mg/kg; format: organism-based; settings: in vivo, dose 10-20 mg/kg
[8] = system: Escherichia coli; assay: Antibacterial activity against Escherichia coli ATCC25922 incubated for 16 to 18 hrs by muller hinton broth based microplate reader analysis; format: functional; settings: time 16-18 hrs
[9] = system: Escherichia coli; assay: Antibacterial activity against Escherichia coli ATCC35150 incubated for 16 to 18 hrs by muller hinton broth based microplate reader analysis; format: functional; settings: time 16-18 hrs
[10] = system: HEK-293T; assay: Cytotoxicity against HEK293T cells at 64 ug/ml incubated for 72 hrs by MTT assay; format: toxicity, cell-based; settings: human, dose 64 µg/ml
[11] = Hemolytic activity in sheep RBC at 64 ug/ml incubated for 1 hrs by absorbance based analysis; format: toxicity, cell-based, Ovis aries; settings: erythrocyte, dose 64 µg/ml
[12] = system: Acinetobacter baumannii; assay: Antibacterial activity against Acinetobacter baumannii ATCC17978 assessed as bactericidal rate by measuring bacterial count at 4 times MIC incubated for 4 hrs by muller-hinton agar based time-kill kinetics assay relative to control; format: functional
[13] = system: Acinetobacter baumannii; assay: Antibacterial activity against Acinetobacter baumannii ATCC17978 assessed as bactericidal rate by measuring bacterial count incubated for 6 hrs by muller-hinton agar based time-kill kinetics assay; format: functional, organism-based
[14] = system: Cell membrane; assay: Induction of cytoplasmic membrane permeabilization in Acinetobacter baumannii ATCC17978 assessed as increase in fluorescence intensity at 16 times MIC incubated for 10 mins by SYTOX green assay
[15] = system: Cell membrane; assay: Induction of cell membrane disruption in Acinetobacter baumannii ATCC17978 assessed as increase in ROS level incubated for 30 mins by DCFH-DA probe based microplate reader analysis
[16] = system: Cell membrane; assay: Disruption of cell membrane in Acinetobacter baumannii ATCC17978 assessed as increase in DNA leakage incubated for 4 hrs by microspectrophotometer analysis
[17] = system: Cell membrane; assay: Disruption of cell membrane in Acinetobacter baumannii ATCC17978 assessed as increase in protein leakage incubated for 4 hrs by BCA assay
[18] = system: Acinetobacter baumannii; assay: Antibacterial activity against Acinetobacter baumannii ATCC17978 infected in neutropenic thigh infection Kunming mouse model assessed as reduction in bacterial load in thigh at 10 to 20 mg/kg, sc pretreated with bacteria for 2 hrs followed by compound addition and measured after 16 hrs; format: functional, organism-based; settings: dose 10-20 mg/kg
[19] = system: Acinetobacter baumannii; assay: Antibacterial activity against Acinetobacter baumannii ATCC17978 incubated for 12 hrs and measured after 20 passages; format: functional, organism-based
[20] = system: HEK-293T; assay: Cytotoxicity against HEK293T cells at 0.5 uM incubated for 72 hrs by MTT assay relative to control; format: toxicity, cell-based; settings: human
[21] = system: HEK-293T; assay: Cytotoxicity against HEK293T cells at 1.0 uM incubated for 72 hrs by MTT assay relative to control; format: toxicity, cell-based; settings: human
[22] = system: Acinetobacter baumannii; assay: Antibacterial activity against Acinetobacter baumannii ATCC17978 infected in neutropenic thigh infection Kunming mouse model assessed as reduction in bacterial load in thigh at 20 mg/kg, sc pretreated with bacteria for 2 hrs followed by compound addition and measured after 16 hrs; format: functional, organism-based

SMILES	MIC [1]	MIC [2]	MIC [3]	MIC [4]	MIC [8]	MIC [9]	further results
O=C(O)c1cn(C2CC2)c2cc(N3CCNCC3)c(F)cc2c1=O [CIPROFLOXACIN]	0.25 µg/mL (≈ 0.754 µM)	1 µg/mL (≈ 3.02 µM)	0.5 µg/mL (≈ 1.51 µM)	1 µg/mL (≈ 3.02 µM)			Activity [5]: Active; Activity [6]: Active
CCCCCCCCCCCC[N+]1(C)CCN(C(=O)[C@H]2NC(=O)[C@H]3NC(=O)[C@H](NC(=O)[C@@H]4NC(=O)[C@H](CC(N)=O)NC(=O)[C@H](NC(=O)[C@@H](CC(C)C)NC)[C@H](O)c5ccc(c(Cl)c5)Oc5cc4cc(c5O[C@@H]4O[C@H](CO)[C@@H](O)[C@H](O)[C@H]4O[C@H]4C[C@](C)(N)[C@H](O)[C@H](C)O4)Oc4ccc(cc4Cl)[C@H]3O)c3ccc(O)c(c3)-c3c(O)cc(O)cc32)CC1.[Br-] (stereo in doubt)	1 µg/mL	8 µg/mL	8 µg/mL	16 µg/mL	16 µg/mL	16 µg/mL	Activity [7]: Non-toxic; Activity [10]: Non-toxic; Activity [11]: Toxic; Activity [12]: 100%; Activity [5]: inactive; Activity [13]: Dose-dependent-effect; Activity [14]: Active; Activity [15]: Active; Activity [16]: Dose-dependent-effect; Activity [17]: Dose-dependent-effect; Activity [18]: Active; Activity [19]: Active
COc1cccc2c1C(=O)c1c(O)c3c(c(O)c1C2=O)C[C@@](O)(C(=O)CO)C[C@@H]3O[C@H]1C[C@H](N)[C@H](O)[C@H](C)O1 [DOXORUBICIN]							Activity [20]: 27.3%; Activity [21]: 85.6%
CCCCCCCCCC[N+]1(C)CCN(C(=O)[C@H]2NC(=O)[C@H]3NC(=O)[C@H](NC(=O)[C@@H]4NC(=O)[C@H](CC(N)=O)NC(=O)[C@H](NC(=O)[C@@H](CC(C)C)NC)[C@H](O)c5ccc(c(Cl)c5)Oc5cc4cc(c5O[C@@H]4O[C@H](CO)[C@@H](O)[C@H](O)[C@H]4O[C@H]4C[C@](C)(N)[C@H](O)[C@H](C)O4)Oc4ccc(cc4Cl)[C@H]3O)c3ccc(O)c(c3)-c3c(O)cc(O)cc32)CC1.[Br-] (stereo in doubt)	1 µg/mL	1 µg/mL	32 µg/mL	32 µg/mL	16 µg/mL	16 µg/mL	
CN[C@H](CC(C)C)C(=O)N[C@H]1C(=O)N[C@@H](CC(N)=O)C(=O)N[C@H]2C(=O)N[C@H]3C(=O)N[C@H](C(=O)N[C@H](C(=O)O)c4cc(O)cc(O)c4-c4cc3ccc4O)[C@H](O)c3ccc(c(Cl)c3)Oc3cc2cc(c3O[C@@H]2O[C@H](CO)[C@@H](O)[C@H](O)[C@H]2O[C@H]2C[C@](C)(NC(=O)CCCCCCCCCCC[n+]3ccccc3)[C@H](O)[C@H](C)O2)Oc2ccc(cc2Cl)[C@H]1O.[Br-]	4 µg/mL	64 µg/mL	> 128 µg/mL	> 128 µg/mL	> 128 µg/mL	> 128 µg/mL	
CN[C@H](CC(C)C)C(=O)N[C@H]1C(=O)N[C@@H](CC(N)=O)C(=O)N[C@H]2C(=O)N[C@H]3C(=O)N[C@H](C(=O)N[C@H](C(=O)O)c4cc(O)cc(O)c4-c4cc3ccc4O)[C@H](O)c3ccc(c(Cl)c3)Oc3cc2cc(c3O[C@@H]2O[C@H](CO)[C@@H](O)[C@H](O)[C@H]2O[C@H]2C[C@](C)(N)[C@H](O)[C@H](C)O2)Oc2ccc(cc2Cl)[C@H]1O [VANCOMYCIN]			> 128 µg/mL	> 128 µg/mL	> 128 µg/mL	> 128 µg/mL	Activity [22]: inactive
CN[C@H](CC(C)C)C(=O)N[C@H]1C(=O)N[C@@H](CC(N)=O)C(=O)N[C@H]2C(=O)N[C@H]3C(=O)N[C@H](C(=O)N[C@H](C(=O)O)c4cc(O)cc(O)c4-c4cc3ccc4O)[C@H](O)c3ccc(c(Cl)c3)Oc3cc2cc(c3O[C@@H]2O[C@H](CO)[C@@H](O)[C@H](O)[C@H]2O[C@H]2C[C@](C)(NC(=O)CCCCCCCCCCC[n+]3cccc(F)c3)[C@H](O)[C@H](C)O2)Oc2ccc(cc2Cl)[C@H]1O.[Br-]	4 µg/mL	64 µg/mL	> 128 µg/mL	> 128 µg/mL	> 128 µg/mL	> 128 µg/mL	
CCCCCCCCCCCCCCCCCC[N+]1(C)CCN(C(=O)[C@H]2NC(=O)[C@H]3NC(=O)[C@H](NC(=O)[C@@H]4NC(=O)[C@H](CC(N)=O)NC(=O)[C@H](NC(=O)[C@@H](CC(C)C)NC)[C@H](O)c5ccc(c(Cl)c5)Oc5cc4cc(c5O[C@@H]4O[C@H](CO)[C@@H](O)[C@H](O)[C@H]4O[C@H]4C[C@](C)(N)[C@H](O)[C@H](C)O4)Oc4ccc(cc4Cl)[C@H]3O)c3ccc(O)c(c3)-c3c(O)cc(O)cc32)CC1.[Br-] (stereo in doubt)	1 µg/mL	64 µg/mL	> 128 µg/mL	> 128 µg/mL	> 128 µg/mL	> 128 µg/mL	
CN[C@H](CC(C)C)C(=O)N[C@H]1C(=O)N[C@@H](CC(N)=O)C(=O)N[C@H]2C(=O)N[C@H]3C(=O)N[C@H](C(=O)N[C@H](C(=O)O)c4cc(O)cc(O)c4-c4cc3ccc4O)[C@H](O)c3ccc(c(Cl)c3)Oc3cc2cc(c3O[C@@H]2O[C@H](CO)[C@@H](O)[C@H](O)[C@H]2O[C@H]2C[C@](C)(NC(=O)CCCCCCCCCCC[n+]3cccc(C(C)=O)c3)[C@H](O)[C@H](C)O2)Oc2ccc(cc2Cl)[C@H]1O.[Br-]	4 µg/mL	64 µg/mL	> 128 µg/mL	> 128 µg/mL	> 128 µg/mL	> 128 µg/mL	
